# Measured values published in ChEMBL document CHEMBL1201862, “PubChem BioAssay data set” (2004).
# Calls of active or inactive are those of the source.
# Tests used:
# [1] = target: Lysine-specific demethylase 4A (Homo sapiens, UniProt O75164); experiment: inhibition of JMJD2A H3K9me3 demethylation – biochemical, DELFIA europium, cherry-picked samples, selectivity assay for GASC-1 inhibitor project, dose response (AID 488840)
# [2] = target: T1, Mannose-6-phosphate isomerase (Homo sapiens, UniProt P34949); experiment: MPI inhibition at elevated mannose 6-phosphate – biochemical, fluorescence intensity, high mannose 6-phosphate, primary screen (AID 1220)
# T1 sequence (P34949 whole entry): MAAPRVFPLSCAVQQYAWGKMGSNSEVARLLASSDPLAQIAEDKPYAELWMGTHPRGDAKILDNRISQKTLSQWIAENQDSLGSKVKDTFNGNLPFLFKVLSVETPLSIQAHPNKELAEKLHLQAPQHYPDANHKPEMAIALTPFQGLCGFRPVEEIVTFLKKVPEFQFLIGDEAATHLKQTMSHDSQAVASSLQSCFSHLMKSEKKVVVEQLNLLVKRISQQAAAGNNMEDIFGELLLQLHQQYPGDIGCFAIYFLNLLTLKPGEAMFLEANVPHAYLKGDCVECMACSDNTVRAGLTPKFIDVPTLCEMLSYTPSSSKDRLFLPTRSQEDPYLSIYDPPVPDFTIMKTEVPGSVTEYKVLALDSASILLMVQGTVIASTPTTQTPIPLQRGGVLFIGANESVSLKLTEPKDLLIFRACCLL
# [3] = target: Lysine-specific demethylase 4C (Homo sapiens, UniProt Q9H3R0); experiment: inhibition of JMJD2C H3K9me3 demethylation – biochemical, DELFIA europium, cherry-picked samples, dose response (AID 488835); type: functional
# [4] = target: Cytochrome P450 2D6 (Homo sapiens, UniProt P10635);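 note: CYP2D6 member of a cytochrome P450 panel assay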
# [5] = target: Cytochrome P450 2C19 (Homo sapiens, UniProt P33261); experiment: Cytochrome panel assay with activity outcomes. Panel member name: p450-cyp2c19 Compounds with AC50 equal or less than 10 uM are considered active; type: functional
# [6] = target: T2, Cytochrome P450 1A2 (Homo sapiens, UniProt P05177);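 note: PubChem cytochrome P450 panel assay, CYP1A2 panel member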
# T2 sequence (P05177 whole entry): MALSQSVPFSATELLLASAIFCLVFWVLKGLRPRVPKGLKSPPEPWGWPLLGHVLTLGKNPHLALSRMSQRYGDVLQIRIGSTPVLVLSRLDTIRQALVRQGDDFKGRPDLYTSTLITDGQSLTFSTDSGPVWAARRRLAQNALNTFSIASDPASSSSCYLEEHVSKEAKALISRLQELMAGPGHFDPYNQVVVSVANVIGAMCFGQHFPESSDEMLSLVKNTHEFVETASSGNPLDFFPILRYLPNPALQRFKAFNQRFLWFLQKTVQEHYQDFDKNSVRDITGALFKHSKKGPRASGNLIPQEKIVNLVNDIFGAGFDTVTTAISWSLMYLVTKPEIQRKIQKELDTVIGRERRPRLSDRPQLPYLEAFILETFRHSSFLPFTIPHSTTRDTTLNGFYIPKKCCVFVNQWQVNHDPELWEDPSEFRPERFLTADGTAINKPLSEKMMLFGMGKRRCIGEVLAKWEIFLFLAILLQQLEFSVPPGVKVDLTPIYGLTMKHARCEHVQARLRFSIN
# [7] = target: Cytochrome P450 2C9 (Homo sapiens, UniProt P11712)
# [8] = target: T3, Cannabinoid receptor 2 (Homo sapiens, UniProt P34972); experiment: SAR analysis of agonists of the Cannabinoid Receptor 2 using an Image-Based Assay - Set 2. [Related pubchem assays (depositor defined):AID1961, AID1965]; type: functional
# [9] = target: T4, Tyrosine-protein phosphatase non-receptor type 7 (Homo sapiens, UniProt P35236); experiment: SAR analysis of chemical inhibitors of HePTP using a Fluorescent assay - Set 2. [Related pubchem assays (depositor defined):AID1059, AID1077, AID1661, AID2085, AID521]; type: functional
# T4 sequence (P35236 whole entry): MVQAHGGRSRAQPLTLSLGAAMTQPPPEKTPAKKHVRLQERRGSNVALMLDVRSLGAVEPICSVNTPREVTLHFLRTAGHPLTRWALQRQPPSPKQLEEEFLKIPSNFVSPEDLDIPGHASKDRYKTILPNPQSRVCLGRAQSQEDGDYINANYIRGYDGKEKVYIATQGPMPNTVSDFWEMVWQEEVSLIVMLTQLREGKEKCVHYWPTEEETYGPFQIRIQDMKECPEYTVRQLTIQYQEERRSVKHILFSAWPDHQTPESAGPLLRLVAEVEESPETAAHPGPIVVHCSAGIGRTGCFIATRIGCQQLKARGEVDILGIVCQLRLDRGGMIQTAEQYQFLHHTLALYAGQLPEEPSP
# [10] = target: T5, G-protein coupled receptor 55 (Homo sapiens, UniProt Q9Y2T6); experiment: selective activators of receptor GPR55 – imaging, U2OS cells, beta-arrestin-GFP redistribution, primary screen (AID 1961); type: functional
# [11] = target: Cannabinoid receptor 1 (Homo sapiens, UniProt P21554); experiment: SAR analysis of antagonists of the Cannabinoid Receptor 1 using an Image-Based Assay. [Related pubchem assays (depositor defined):AID1961, AID1965]; type: functional
# [12] = target: T6, Polyadenylate-binding protein 1 (Homo sapiens, UniProt P11940); experiment: MLLE binding blockers, Cy5 peptide tracer – biochemical, fluorescence polarization, Cy5-PAM2 peptide, secondary, miRNA deadenylation inhibitor project, dose response (AID 602260); type: functional; conditions: read-out: IC50_Mean
# [13] = target: Dual specificity protein phosphatase 3 (Homo sapiens, UniProt P51452); experiment: SAR VHR1 Fluorescent Assay for In Vitro dose response studies Set 2. [Related pubchem assays (depositor defined):AID1654, AID1661, AID1878]; type: functional
# [14] = target: T3, Cannabinoid receptor 2; experiment: SAR analysis of antagonists of the Cannabinoid Receptor 2 using an Image-Based Assay - Set 2. [Related pubchem assays (depositor defined):AID1961, AID1965]; type: functional
# [15] = target: T5, G-protein coupled receptor 55; experiment: SAR analysis of selective Agonists of GPR55 using an Image-Based Assay. [Related pubchem assays (depositor defined):AID1961, AID1965]; type: functional
# [16] = target: T6, Polyadenylate-binding protein 1; experiment: MLLE domain peptide-binding blockers, IC50 – biochemical, fluorescence polarization, FITC-PAM2 peptide, dose response (AID 602259); type: functional; conditions: read-out: IC50_Mean
# [17] = target: T4, Tyrosine-protein phosphatase non-receptor type 7; experiment: inhibition of hematopoietic tyrosine phosphatase HePTP – biochemical, set 2, SAR follow-up (AID 449736); type: functional
# [18] = target: T7, Delta-type opioid receptor (Homo sapiens, UniProt P41143); experiment: delta opioid receptor blockers – image-based, SAR follow-up (AID 2357); type: functional
# [19] = target: T8, Kappa-type opioid receptor (Homo sapiens, UniProt P41145); experiment: kappa opioid receptor activation potency – imaging, image-based, SAR follow-up (AID 2359); type: functional
# [20] = target: T9, Mu-type opioid receptor (Homo sapiens, UniProt P35372); experiment: mu opioid receptor blockers – image-based, SAR follow-up (AID 2420); type: functional;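 note: compounds added before stimulation of receptor with agonist DAMGO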
# [21] = target: T8, Kappa-type opioid receptor; experiment: kappa opioid receptor blockers, image-based, SAR follow-up (AID 2348); type: functional
# [22] = target: T7, Delta-type opioid receptor; experiment: DOR agonists, SAR follow-up, image-based (AID 2370); type: functional
# [23] = target: T9, Mu-type opioid receptor; experiment: mu opioid receptor activators, image-based, SAR follow-up (AID 2352); type: functional
# [24] = target: T8, Kappa-type opioid receptor; experiment: kappa opioid receptor blockers, cell-based, luminescence, beta-arrestin, SAR follow-up (AID 2285); type: functional
# [25] = cells; type: functional
# [26] = target: Heat shock protein HSP 90-alpha (Homo sapiens, UniProt P07900); type: functional, organism-based
# [27] = Counterscreen for AddAB inhibitors: absorbance-based bacterial cell-based high throughput dose response assay for inhibitors of bacterial viability. [Related pubchem assays (depositor defined):AID435030, AID449728, AID449731, AID488942, AID488955, AID488956]; type: functional
# [28] = Luminescence Cell-Based Dose Retest to Confirm Inhibitors of Cancer Stem Cells. [Related pubchem assays (depositor defined):AID2717, AID2721]; type: functional; conditions: Homo sapiens
# [29] = THP-1 cell cytotoxicity, dose response, cytotoxicity control for non-replicating M. tuberculosis project (AID 489025); type: functional
# [30] = Vero E6 cell cytotoxicity, dose response, cytotoxicity control for non-replicating M. tuberculosis project, secondary assay (AID 492998); type: functional, VeroE6; conditions: Vero C1008
# [31] = HepG2 cell cytotoxicity, dose response, cytotoxicity control for non-replicating M. tuberculosis project (AID 489018); type: functional; conditions: Mycobacterium tuberculosis
# [32] = target: Exodeoxyribonuclease V (Escherichia coli (strain K12), UniProt P04993+P07648+P08394); experiment: RecBCD inhibition via phage-restricted bacterial growth – absorbance, V66 E. coli, mutant T4 phage, counter-screen for AddAB inhibitor project, dose response (AID 492957); type: functional, cell-based, Escherichia coli str. K-12 substr. MG1655
# [33] = target: T10, Alkaline phosphatase, tissue-nonspecific isozyme (Homo sapiens, UniProt P05186); experiment: activation of tissue-nonspecific alkaline phosphatase – biochemical, TNAP isozyme, human IAP uHTS hits, selectivity assay for human IAP activator project, dose response (AID 488886); type: functional;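 note: potency of compounds raising TNAP activity as a selectivity check on IAP activators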
# T10 sequence (P05186 whole entry): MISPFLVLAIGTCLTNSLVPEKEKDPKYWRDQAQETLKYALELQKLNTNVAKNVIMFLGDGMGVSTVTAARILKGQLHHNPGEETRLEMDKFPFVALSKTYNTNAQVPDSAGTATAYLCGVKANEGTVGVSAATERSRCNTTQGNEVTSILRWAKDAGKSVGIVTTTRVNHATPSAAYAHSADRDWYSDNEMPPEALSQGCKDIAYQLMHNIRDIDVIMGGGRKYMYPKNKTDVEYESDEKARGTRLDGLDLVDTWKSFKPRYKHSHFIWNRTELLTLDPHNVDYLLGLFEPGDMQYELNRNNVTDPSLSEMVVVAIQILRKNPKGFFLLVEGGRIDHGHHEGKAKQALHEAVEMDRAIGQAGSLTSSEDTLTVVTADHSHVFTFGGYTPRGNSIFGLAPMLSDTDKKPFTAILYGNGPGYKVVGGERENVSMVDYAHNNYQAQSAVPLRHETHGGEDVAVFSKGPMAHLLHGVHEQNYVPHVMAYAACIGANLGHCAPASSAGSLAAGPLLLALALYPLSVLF
# [34] = target: T11, Intestinal-type alkaline phosphatase (Homo sapiens, UniProt P09923); experiment: activation of human intestinal alkaline phosphatase – biochemical, luminescent, uHTS hits, set 2, dose response (AID 488817); type: functional;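 note: potency of activators that raise enzyme activity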
# [35] = target: Intestinal-type alkaline phosphatase (Mus musculus, UniProt P24822); experiment: PubChem AID 488875; type: functional
# [36] = target: T11, Intestinal-type alkaline phosphatase; experiment: human intestinal alkaline phosphatase activators, dose response, biochemical, luminescence, uHTS hits (AID 463120); type: functional
# T8 sequence (P41145 whole entry): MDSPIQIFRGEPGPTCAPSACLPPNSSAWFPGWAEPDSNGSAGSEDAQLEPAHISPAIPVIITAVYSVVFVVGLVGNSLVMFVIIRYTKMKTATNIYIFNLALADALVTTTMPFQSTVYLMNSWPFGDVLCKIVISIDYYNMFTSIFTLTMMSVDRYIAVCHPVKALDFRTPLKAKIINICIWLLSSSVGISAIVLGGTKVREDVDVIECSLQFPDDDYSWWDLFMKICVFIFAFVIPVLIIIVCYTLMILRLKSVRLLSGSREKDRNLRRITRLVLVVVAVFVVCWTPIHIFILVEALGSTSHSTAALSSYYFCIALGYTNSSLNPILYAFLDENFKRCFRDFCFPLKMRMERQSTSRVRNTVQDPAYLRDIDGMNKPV
# T7 sequence (P41143 whole entry): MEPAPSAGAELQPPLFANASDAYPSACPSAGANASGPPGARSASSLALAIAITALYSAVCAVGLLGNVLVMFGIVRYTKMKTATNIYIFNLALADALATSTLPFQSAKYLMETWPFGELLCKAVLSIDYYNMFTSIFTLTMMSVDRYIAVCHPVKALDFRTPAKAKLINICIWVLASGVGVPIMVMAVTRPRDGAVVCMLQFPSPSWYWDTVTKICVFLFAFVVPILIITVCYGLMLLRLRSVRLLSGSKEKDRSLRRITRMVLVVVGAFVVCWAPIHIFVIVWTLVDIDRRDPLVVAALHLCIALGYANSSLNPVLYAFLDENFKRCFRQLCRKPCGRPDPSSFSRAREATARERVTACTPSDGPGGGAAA
# T11 sequence (P09923 whole entry): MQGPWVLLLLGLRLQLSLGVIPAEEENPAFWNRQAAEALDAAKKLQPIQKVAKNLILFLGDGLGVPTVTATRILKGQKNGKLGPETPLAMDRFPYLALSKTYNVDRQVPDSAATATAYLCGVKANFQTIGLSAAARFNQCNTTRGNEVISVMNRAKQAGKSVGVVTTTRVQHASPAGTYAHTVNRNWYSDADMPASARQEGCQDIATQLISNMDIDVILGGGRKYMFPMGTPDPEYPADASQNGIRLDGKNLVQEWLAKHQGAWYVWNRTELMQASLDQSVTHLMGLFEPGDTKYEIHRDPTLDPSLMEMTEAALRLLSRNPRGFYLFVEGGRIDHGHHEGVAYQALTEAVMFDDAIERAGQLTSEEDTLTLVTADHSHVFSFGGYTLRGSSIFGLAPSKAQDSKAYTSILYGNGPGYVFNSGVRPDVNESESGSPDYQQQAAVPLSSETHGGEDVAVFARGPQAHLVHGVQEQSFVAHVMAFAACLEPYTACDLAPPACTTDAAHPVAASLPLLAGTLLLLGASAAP
# T5 sequence (Q9Y2T6 whole entry): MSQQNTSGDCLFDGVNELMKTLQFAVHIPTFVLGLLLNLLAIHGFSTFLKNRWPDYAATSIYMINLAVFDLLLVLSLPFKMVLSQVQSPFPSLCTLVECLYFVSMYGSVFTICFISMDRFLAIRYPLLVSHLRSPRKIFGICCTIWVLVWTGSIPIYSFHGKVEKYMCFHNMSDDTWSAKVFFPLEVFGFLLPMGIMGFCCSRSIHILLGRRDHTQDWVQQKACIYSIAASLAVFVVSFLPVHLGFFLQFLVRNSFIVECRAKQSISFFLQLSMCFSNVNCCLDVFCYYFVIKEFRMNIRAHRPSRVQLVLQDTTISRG
# T6 sequence (P11940 whole entry): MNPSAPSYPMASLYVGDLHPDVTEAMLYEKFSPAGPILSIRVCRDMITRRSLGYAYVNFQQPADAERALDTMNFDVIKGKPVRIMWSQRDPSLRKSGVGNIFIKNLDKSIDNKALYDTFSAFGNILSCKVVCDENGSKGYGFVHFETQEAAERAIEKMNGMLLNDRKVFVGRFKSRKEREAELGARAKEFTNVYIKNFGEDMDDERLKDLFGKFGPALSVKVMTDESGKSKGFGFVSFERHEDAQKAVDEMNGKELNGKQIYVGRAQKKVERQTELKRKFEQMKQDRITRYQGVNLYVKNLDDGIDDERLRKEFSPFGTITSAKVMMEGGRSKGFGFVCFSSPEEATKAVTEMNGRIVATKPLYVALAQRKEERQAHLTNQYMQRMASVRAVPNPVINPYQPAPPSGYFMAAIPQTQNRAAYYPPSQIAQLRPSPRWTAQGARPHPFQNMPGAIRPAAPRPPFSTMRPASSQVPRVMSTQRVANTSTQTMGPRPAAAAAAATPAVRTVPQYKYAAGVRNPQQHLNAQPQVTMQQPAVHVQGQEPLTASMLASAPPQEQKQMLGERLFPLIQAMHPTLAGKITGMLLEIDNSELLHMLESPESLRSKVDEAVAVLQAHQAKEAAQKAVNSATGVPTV
# T9 sequence (P35372 whole entry): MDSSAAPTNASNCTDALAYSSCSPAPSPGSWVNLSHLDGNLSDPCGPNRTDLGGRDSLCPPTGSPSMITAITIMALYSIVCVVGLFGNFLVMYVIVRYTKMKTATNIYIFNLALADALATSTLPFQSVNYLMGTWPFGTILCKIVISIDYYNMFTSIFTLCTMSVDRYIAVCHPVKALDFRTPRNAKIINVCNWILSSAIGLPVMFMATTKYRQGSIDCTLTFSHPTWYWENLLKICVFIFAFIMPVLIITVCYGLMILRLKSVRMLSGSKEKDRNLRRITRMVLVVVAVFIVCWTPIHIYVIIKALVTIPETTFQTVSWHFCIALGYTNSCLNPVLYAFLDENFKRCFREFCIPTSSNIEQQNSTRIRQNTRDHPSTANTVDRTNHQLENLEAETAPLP
# T3 sequence (P34972 whole entry): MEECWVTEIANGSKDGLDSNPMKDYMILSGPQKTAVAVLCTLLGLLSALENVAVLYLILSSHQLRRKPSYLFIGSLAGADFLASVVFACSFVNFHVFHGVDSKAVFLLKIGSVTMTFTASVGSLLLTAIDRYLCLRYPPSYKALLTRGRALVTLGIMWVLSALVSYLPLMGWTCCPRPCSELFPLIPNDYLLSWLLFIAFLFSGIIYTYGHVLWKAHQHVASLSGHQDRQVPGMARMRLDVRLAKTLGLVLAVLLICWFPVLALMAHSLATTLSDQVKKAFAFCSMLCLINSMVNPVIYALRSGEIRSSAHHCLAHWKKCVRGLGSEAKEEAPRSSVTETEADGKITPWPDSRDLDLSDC
# Chain of Cytochrome P450 2C9 (P11712 whole entry): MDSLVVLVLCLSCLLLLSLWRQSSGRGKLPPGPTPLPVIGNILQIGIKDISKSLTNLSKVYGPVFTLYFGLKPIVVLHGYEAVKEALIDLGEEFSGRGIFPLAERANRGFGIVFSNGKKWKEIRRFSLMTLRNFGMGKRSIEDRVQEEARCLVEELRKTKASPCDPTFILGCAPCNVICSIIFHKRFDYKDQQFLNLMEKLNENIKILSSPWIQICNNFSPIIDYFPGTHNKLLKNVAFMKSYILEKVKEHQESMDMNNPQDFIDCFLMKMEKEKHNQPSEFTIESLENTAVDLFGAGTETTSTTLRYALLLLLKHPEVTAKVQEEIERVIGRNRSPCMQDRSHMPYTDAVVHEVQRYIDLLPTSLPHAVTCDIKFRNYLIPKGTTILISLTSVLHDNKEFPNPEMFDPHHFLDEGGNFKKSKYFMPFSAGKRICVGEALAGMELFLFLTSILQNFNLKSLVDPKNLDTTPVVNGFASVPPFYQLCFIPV
# Chain of Cytochrome P450 2C19 (P33261 whole entry): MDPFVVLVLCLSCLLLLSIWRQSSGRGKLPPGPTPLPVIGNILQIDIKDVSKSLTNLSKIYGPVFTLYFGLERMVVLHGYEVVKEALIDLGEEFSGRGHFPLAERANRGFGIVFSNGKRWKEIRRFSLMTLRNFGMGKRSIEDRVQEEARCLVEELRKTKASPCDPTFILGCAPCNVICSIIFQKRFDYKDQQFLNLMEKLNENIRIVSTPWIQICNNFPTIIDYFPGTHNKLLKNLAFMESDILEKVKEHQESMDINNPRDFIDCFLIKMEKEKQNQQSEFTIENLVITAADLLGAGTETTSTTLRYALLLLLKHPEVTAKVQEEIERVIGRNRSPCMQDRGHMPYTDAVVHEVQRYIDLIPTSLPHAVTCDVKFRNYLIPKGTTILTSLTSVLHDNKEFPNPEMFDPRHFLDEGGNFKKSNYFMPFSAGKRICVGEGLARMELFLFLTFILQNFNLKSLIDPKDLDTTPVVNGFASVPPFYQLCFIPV
# Chain of Dual specificity protein phosphatase 3 (P51452 whole entry): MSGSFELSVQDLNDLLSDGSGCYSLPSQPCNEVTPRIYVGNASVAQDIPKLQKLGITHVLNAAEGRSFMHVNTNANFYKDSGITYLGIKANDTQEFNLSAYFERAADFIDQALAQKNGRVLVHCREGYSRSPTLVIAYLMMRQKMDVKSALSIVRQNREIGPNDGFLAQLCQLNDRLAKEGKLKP
# Chain of Intestinal-type alkaline phosphatase (Mus musculus, UniProt P24822) (P24822 whole entry): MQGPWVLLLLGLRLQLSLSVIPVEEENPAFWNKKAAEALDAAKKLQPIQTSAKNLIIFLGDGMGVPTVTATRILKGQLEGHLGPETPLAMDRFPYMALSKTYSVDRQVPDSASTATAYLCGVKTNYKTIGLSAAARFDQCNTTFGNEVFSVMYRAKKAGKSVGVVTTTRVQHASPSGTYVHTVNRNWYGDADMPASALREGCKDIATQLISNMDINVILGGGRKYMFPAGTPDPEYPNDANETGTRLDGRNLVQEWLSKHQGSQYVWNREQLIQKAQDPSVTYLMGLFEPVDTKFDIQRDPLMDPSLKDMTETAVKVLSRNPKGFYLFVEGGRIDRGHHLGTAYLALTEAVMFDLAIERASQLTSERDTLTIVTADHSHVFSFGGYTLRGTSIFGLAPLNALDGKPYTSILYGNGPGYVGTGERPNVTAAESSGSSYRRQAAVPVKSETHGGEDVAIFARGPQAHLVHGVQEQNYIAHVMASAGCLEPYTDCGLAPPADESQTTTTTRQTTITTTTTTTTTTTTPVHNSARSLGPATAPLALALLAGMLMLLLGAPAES
smiles,measurement,setting,value
Cc1ccc2[nH]c(=O)c(C=C3C(=O)NC(=O)NC3=O)cc2c1,AC50,[1],26.9 µM (active)
same,IC50,[2],> 50 µM (not active)
same,AC50,[3],46.5 µM (active)
O=C(c1cc(C(F)(F)F)cc(C(F)(F)F)c1)N1CCC2(CC1)CN(c1ncccn1)C2,AC50,[4],inconclusive
same,AC50,[5],inconclusive
same,AC50,[6],inconclusive
same,AC50,[7],inconclusive
CC(C)NS(=O)(=O)c1ccc(NC(=S)NC(=O)c2ccc(-c3ccccc3)cc2)cc1,EC50,[8],> 32 µM (inactive)
same,IC50,[9],> 100 µM (inactive)
same,EC50,[10],0.544 µM (active)
same,IC50,[11],> 32 µM (inactive)
same,IC50,[12],> 66 µM (inactive)
same,IC50,[13],> 100 µM (inactive)
same,IC50,[14],> 32 µM (inactive)
same,EC50,[15],0.354 µM (active)
same,IC50,[16],> 66 µM (inactive)
COc1ccc(Cl)cc1-n1c(N)c(C(=O)N2CCOCC2)sc1=S,IC50,[17],> 100 µM (inactive)
Cc1ccc(C)c(NC(S)=NC(NC(=O)OCc2ccccc2)C(Cl)(Cl)Cl)c1 (stereo unspecified),IC50,[18],> 32 µM (inactive)
same,EC50,[19],> 32 µM (inactive)
same,IC50,[20],> 32 µM (inactive)
same,IC50,[21],1.53 µM (active)
same,EC50,[22],> 32 µM (inactive)
same,EC50,[23],> 32 µM (inactive)
same,IC50,[24],6.2 µM (active)
O=C(Nc1nc(-c2cccs2)cs1)c1ccc([N+](=O)[O-])o1,IC50,[25],0.61 µM (active)
same,AC50,[26],2.32 µM (active)
same,IC50,[27],> 118 µM (inactive)
same,AC50,[28],1.52 µM (active)
same,CC50,[29],9.67 µM (active)
same,CC50,[30],> 20 µM (active)
same,CC50,[31],9.45 µM (active)
same,IC50,[32],> 118 µM (inactive)
CC(C)(C)NC(=O)C(=O)NNC(=O)COc1ccccc1,EC50,[33],36.4 µM (active)
same,EC50,[34],28.4 µM (active)
same,EC50,[35],> 100 µM (inactive)
same,EC50,[36],28 µM (active)
